Measurements reported in the METLIN SMRT retention time set (Domingo-Almenara et al. 2019).

Experiment: gradient 5% acetonitrile 3 min, to 50% in 2 min, to 85% in 15 min, held 3 min, 100 µL/min
Conditions: column: Zorbax Extend-C18 2.1 x 50 mm; eluents: water / acetonitrile, 0.1% formic acid
Summary of the method: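 A Zorbax Extend-C18 column (2.1 × 50 mm, 1.8 μm) run at 100 μL/min with water and acetonitrile, both containing 0.1% formic acid, separated mixtures of ~100 pure standards. The HPLC was coupled to a quadrupole time-of-flight mass spectrometer operated in positive and negative ionization mode, with dead and dwell volumes of 40 μL and 900 μL. Each retention time was taken from a computationally picked adduct peak that was then manually inspected.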

RP-LC retention time | SMILES
744 s | O=C(Cc1cccc(C(F)(F)F)c1)Nc1cccn2cnnc12
737 s | CCNC(=O)CCc1nc2ccccc2n(CC(=O)Nc2cc(OC)cc(OC)c2)c1=O
998 s | COCC(=O)N1CCc2c([nH]c3ccccc23)C1c1ccc(SC)cc1 (stereo not given)
687 s | O=C(c1cc(C2CC2)n(CC(=O)N(Cc2ccccc2)c2ccccn2)n1)N1CCOCC1
795 s | COCc1cc2nn(CC(=O)Nc3ccccc3F)c(=O)n2c(-c2ccccc2)n1
678 s | O=C(Nc1c(C(=O)N2CCN(c3ccccn3)CC2)[nH]c2ccccc12)c1ccc(Cl)cc1
843 s | COc1ccc2nc(C(=O)NCc3ccc(C)cc3)cn2n1
972 s | Cc1ccccc1OCC(=O)Nc1ccc2c(c1)Sc1ncccc1C(=O)N2C(C)C
722 s | CCN(CC)C(=O)c1ccc(-c2nc3cc(NS(=O)(=O)c4ccc(F)c(C)c4)ccc3n2C)cc1
984 s | Cc1ccc(C(C)NC(=O)c2nnc(-c3ccc(S(=O)(=O)N(C)C)cc3)o2)c(C)c1 (stereo not given)
963 s | COc1ccc(-c2csc(NC(=O)c3ccc4c(c3)OCCO4)n2)cc1OC
894 s | O=c1c2cc(-c3ccc(Cl)cc3)nn2ccn1Cc1nc(-c2ccccn2)no1
764 s | Cc1cc(C)n2nc(SCC(=O)Nc3ccc(C)c(C)c3)nc2n1
902 s | COc1ccc(-c2ncc(C(=O)Nc3ccc(OC)c(Cl)c3)c(-c3ccncc3)n2)cc1
768 s | CC(C)N1CCn2c(nc3cc(C(=O)NCc4ccccc4C(F)(F)F)ccc32)C1=O
712 s | Cc1cc(=O)n(CC(=O)Nc2ccc(Br)cc2)c(N2CCOCC2)n1
940 s | CCOc1ccc(-c2csc(C)n2)cc1S(=O)(=O)Nc1ccc(OC)cc1
664 s | Cn1c(CCNC(=O)c2cccc(C(F)(F)F)c2)nc2cccnc21
747 s | Cc1ccc2c(c1)-c1onc(C(=O)N3CCN(c4ccccn4)CC3)c1CO2

Continued, molecule first:

SMILES | RP-LC retention time
O=C(Nc1nc2ccccc2s1)C1CCCN(c2ncnc3c2nc2n3CCCCC2)C1 (stereo not given) | 909 s
Cc1cc(C)n(CCNC(=O)C(=O)Nc2cc(C)on2)n1 | 608 s
O=C(NCc1ccco1)c1cn(-c2cc(N3CCOCC3)ncn2)cn1 | 651 s
O=C(Cn1c(=O)oc2ccc(C(=O)N3CCCC3)cc21)N1CCN(c2cccc(Cl)c2)CC1 | 842 s
O=C1/C(=C/c2ccccc2)C[C@@]2(O)[C@H]3Cc4ccc(O)c5c4[C@@]2(CCN3CC2CC2)[C@H]1O5 | 724 s
CC(C)CN1CCn2cc(S(=O)(=O)NCc3ccccc3Cl)cc2C1=O | 818 s
O=C(COc1cccc2ccc(N3CCOCC3)nc12)Nc1ccc(OC(F)(F)F)cc1 | 703 s
Cn1ccc2cc(S(=O)(=O)N3CCC(C(=O)NCC4CCCO4)CC3)ccc21 (stereo not given) | 739 s
Cn1nc(C(=O)N2CCN3CCS(=O)(=O)N(C4CC4)C(=O)C3C2)c2ccccc21 (stereo not given) | 748 s
CCOC(=O)Cc1ccc(NC(=O)N2CCc3nc[nH]c3C2)cc1 | 588 s
Cn1nnc2cc(-c3noc(COc4ccc(Cl)cc4)n3)ccc21 | 994 s
COc1cc(NC(=O)N2CCCC(CN3CCc4ccccc4C3)C2)cc(OC)c1OC (stereo not given) | 642 s
Cn1cccc1C(=O)N1CCC2(CC1)NC(=O)N(Cc1cccc(Cl)c1)C2=O | 821 s
O=C(Nc1cc(-c2ccsc2)no1)C1CC1 | 792 s
Cc1noc(/C=C\c2ccc(S(=O)(=O)N3CCN(c4ncccn4)CC3)cc2)c1NC(=O)C1CC1 | 849 s
O=C1NC(C(=O)Nc2ccc3c(c2)OCCO3)Cn2cccc21 (stereo not given) | 643 s
CN(CC1CCCO1)S(=O)(=O)c1ccc(C(=O)Nc2sc3c(c2C#N)CCC3)cc1 (stereo not given) | 957 s
O=C(NC1CCCCC1)c1ccc(CN2C(=O)C3CCCN3C(=O)c3ccccc32)cc1 (stereo not given) | 770 s
COc1ccc(/C=C2\CCc3ccccc3C2=O)cc1OC | 994 s
Cc1ccc(-c2cc3n(n2)CCCN(C(=O)C2CCOC2)C3)cc1 (stereo not given) | 712 s
Cc1nnc(NC(=O)CSc2cc(N3CCCC3)ncn2)s1 | 577 s
CCc1noc([C@@H]2CC(F)(F)CN2C(=O)c2occc2C)n1 | 840 s
CCOc1ccc(N(C)S(=O)(=O)c2ccsc2C(=O)NC2CCCC2)cc1 | 1030 s
CCN(C(=O)C1CCCN(c2ncnc3c2nc2n3CCCCC2)C1)c1cccc(C)c1 (stereo not given) | 903 s
COc1ccc(S(=O)(=O)N2CCN=C2SCc2cccnc2)cc1 | 594 s
Cc1ccc(NC(=O)N2CCCC2C(=O)NC(C)C)cc1 (stereo not given) | 694 s
